Data: patent US8735384B2, “Amino heteroaryl compounds as beta-secretase modulators and methods of use” (Amgen Inc., priority 2010, dated 2014)

Experiments:
[1] = test system: Aβ40 in conditioned medium of cells stably expressing Amyloid Precursor Protein (APP); test: In vitro BACE cell-based assay (HEK cell assay), Aβ40 sandwich ELISA; details: Homo sapiens, HEK293, 24 h, inhibition of Aβ40, 24 h incubation, read-out: HEK cell assay (IC50 class)
In short: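 Aβ40 in conditioned medium measured after 24 h compound exposure (10-point series, 100 μM or 10 μM start, 0.1% DMSO) of cells stably expressing APP, seeded 40K/well. Detection: pAb40/6E10-biotin sandwich ELISA at 4°C with time-resolved europium read-out; IC50 derived from percent of control.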

BACE1 = BACE1 (Homo sapiens, UniProt P56817); test: In vitro enzymatic BACE FRET assay; type: biochemical; details: beta secretase enzyme 0.2 nM, FRET substrate 50 nM, pH 4.2; read-out: BACE1 FRET assay (IC50 class)
In short: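 Enzyme activity was measured as release of quenching from a 50 nM fluorophore/quencher peptide spanning the cleavage site, over 1 h. This followed 1 h pre-incubation of 0.2 nM enzyme with compound dilutions at pH 4.2 (acetate, 10% DMSO, genapol). Tris addition ended the reaction before fluorescence was measured.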

BACE1, sequence (P56817 46-501, species assumed): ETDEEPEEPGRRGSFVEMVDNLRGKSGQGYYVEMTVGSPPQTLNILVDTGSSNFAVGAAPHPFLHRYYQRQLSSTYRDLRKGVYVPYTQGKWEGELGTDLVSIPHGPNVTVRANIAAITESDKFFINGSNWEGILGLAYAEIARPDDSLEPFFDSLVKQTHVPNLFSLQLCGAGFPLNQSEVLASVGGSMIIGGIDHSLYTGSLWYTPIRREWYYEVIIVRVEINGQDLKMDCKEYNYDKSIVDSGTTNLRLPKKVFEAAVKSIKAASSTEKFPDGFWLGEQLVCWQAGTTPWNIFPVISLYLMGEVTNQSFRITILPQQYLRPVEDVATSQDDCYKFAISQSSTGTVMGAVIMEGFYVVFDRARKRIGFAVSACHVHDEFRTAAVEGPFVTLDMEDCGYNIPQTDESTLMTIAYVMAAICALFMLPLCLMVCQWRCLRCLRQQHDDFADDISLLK

SMILES	IC50 [1] [nM]	IC50 (BACE1) [nM]
Cc1ccc(C2(C)CN(c3cc4cc(-c5c(C)cccc5C(=O)N5CCCC5)ccc4nc3N)CCO2)cc1 (centres unmarked) [Example 217, (2-(2-amino-3-(2-methyl-2-p-tolylmorpholino)quinolin-6-yl)-3-methylphenyl)(pyrrolidin-1-yl)methanone]	1010 to 5000	100 to 500
Cc1ccccc1-c1ccc2nc(N)c(N3CCOCC3)cc2c1 [Example 218, 3-morpholino-6-o-tolylquinolin-2-amine]	> 5000	501 to 1000
Nc1nc2ccc(-c3ccccc3Cl)cc2cc1N1CCOCC1 [Example 219, 6-(2-chlorophenyl)-3-morpholinoquinolin-2-amine]	> 5000	501 to 1000
Nc1nc2ccc(-c3ccccc3F)cc2cc1N1CCOCC1 [Example 220, 6-(2-fluorophenyl)-3-morpholinoquinolin-2-amine]	> 5000	1010 to 5000
